31 molecules from patent US10738024B2, “Compounds for treatment of angiogenesis-mediated diseases” (Indiana University Research and Technology Corporation, priority 2013, dated 2020) can be followed below.

The test system of experiment [1] is Y-79 retinoblastoma cells. The experiment in a line: ALAMARBLUE proliferation assay in Y-79 retinoblastoma cells. The experiment is classed as cell-based. As to conditions: 50% growth inhibitory concentration, 48 hours. How it is done: (§1) For proliferation assays, cells (2500 per well) were seeded in a 96-well clear bottom black polystyrene plate in a total volume of 100 μL. HUVECs and HRECs were grown in EGM-2 and CSC+ media respectively, while 92-1 and Y79 cells were maintained in RPMI+10% FBS, penicillin/streptomycin and RB medium (IMDM+10% FBS+penicillin/streptomycin+10 μg/mL insulin+55 μM β-mercaptoethanol) respectively. After 24 hours of incubation of the plate at 37° C., the compounds were dissolved in DMSO and added in the concentration range of 500 μM to 0.5 nM. The plate was then incubated at 37° C. and 5% CO2 conditions for 48 hours before adding 11.1 μL of alamar blue reagent for each well. Four hours after the addition of ALAMARBLUE® reagent, fluorescence readings with excitation and emission wavelengths of 560 nm and 590 nm respectively were taken and the data was analyzed in GraphPad Prism software. The dose response curves were generated and the GI50 values were calculated using the equation: Y=100/(1+10^(X−Log GI50)) (Table 1).
A general note: Resazurin is reduced to fluorescent resorufin, in cell work by metabolically active cells.

The next experiment concerns HUVECs. The experiment in a line: ALAMARBLUE proliferation assay in HUVECs. The experiment is classed as cell-based, human. The following applies: Homo sapiens, HUVEC, 48 h, 50% growth inhibitory concentration, alamarBlue. How it is done:
(§2) Particularly, in a 96-well clear bottom black plate, cells (2,500 cells per well) were seeded in a total volume of 100 μL EGM-2. After 24 hours of incubation of the plate at 37° C. and 5% CO2, a DMSO solution of synthetic cremastranone (1) or SH-11052 (2) was added in the concentration range of 0.5 nM to 500 μM (final DMSO concentration=1%). The plate was then further incubated for 48 hours before adding 11.1 μL of ALAMARBLUE® reagent to each well. Four hours after the addition of ALAMARBLUE®, fluorescence readings with excitation and emission wavelengths of 560 nm and 590 nm, respectively, were taken and the data were analyzed in GraphPad Prism software (v. 6.0). Dose response curves were generated and the GI50 values were calculated using the following equation: Y=100/(1+10^(X−Log GI50)).
as §1

The test system of experiment [2] is 92-1 uveal melanoma cells. The experiment in a line: ALAMARBLUE proliferation assay in 92-1 uveal melanoma cells. The format is cell-based. As to conditions: 50% growth inhibitory concentration, 48 hours, alamarBlue. How it is done:
as §1

In another experiment the test system is HRECs. Nature of the experiment: ALAMARBLUE proliferation assay in HRECs. The format is cell-based, human. As to conditions: Homo sapiens, HREC; 50% growth inhibitory concentration, 48 hours, alamarBlue; read-out: GI50 HREC. How it is done:
as §2, §1

The GI50 is the concentration giving 50% growth inhibition. Take `COc1ccc(CN2CCc3cc(OC)c(OC)c(OC)c3C2=O)cc1OCc1ccccc1` [Compound 14, 2-(3-(Benzyloxy)-4-methoxybenzyl)-6,7,8-trimethoxy-3,4-dihydroisoquinolin-1(2H)-one]: the GI50 in experiment [1] is above 500 µM; in the experiment on HUVECs it was 71 µM; in experiment [2], 6 µM; in the experiment on HRECs, 103 µM.

Take `COC(=O)c1cc(/C=C2\COc3cc(OC)c(OC)c(OC)c3C2=O)ccc1O` [Compound 11o]: the GI50 in experiment [1] is 2.3 µM; in the experiment on HUVECs it was 2 µM; in experiment [2], 8.2 µM; with HRECs, 4.7 µM.

For the molecule `COc1cc2c(c(OC)c1OC)C(=O)/C(=C/c1cccc(Cl)c1Cl)CO2` [Compound 11v], the GI50 in experiment [1] amounted to 18 µM; with HUVECs it was 10.4 µM; in experiment [2], 31 µM; in the experiment on HRECs, 25.6 µM.

In the case of `COc1ccc(/C=C2\COc3cc(OC)c(OC)c(OC)c3C2=O)cc1F` [Compound 11s], the GI50 in experiment [1] was 10 µM; in the experiment on HUVECs, 7.6 µM; in experiment [2] it was 7 µM; in the experiment on HRECs it was 3.2 µM.

As for `COc1cc2c(c(OC)c1OC)C(=O)/C(=C/c1ccc(OCc3ccccc3)cc1)CO2` [Compound 11i], the GI50 in experiment [1] is 465 µM; in the experiment with HUVECs it was 284 µM; in experiment [2] it was 152 µM; in the experiment on HRECs, above 500 µM.

Consider `COc1cc2c(c(OC)c1OC)C(=O)C(Cc1ccccc1)CO2` (stereo not drawn) [Compound 6b, 3-benzyl-5,6,7-trimethoxychroman-4-one], for which the GI50 (in experiment [1]; in the experiment with HUVECs; in experiment [2]; in the experiment on HRECs) was above 100 µM each time.

In the case of `C#CCOc1cc(/C=C2\COc3cc(OC)c(OC)c(OC)c3C2=O)ccc1OC` [Compound 11g], the GI50 in experiment [1] is 32 µM; in the experiment on HUVECs, 21 µM; in experiment [2] it was 310 µM; in the experiment with HRECs, 39 µM.

For `COc1cc(OC)c2c(c1)OCC(Cc1ccc(OC)c(O)c1)C2=O` (stereo not drawn) [Compound 15b], the GI50 in experiment [1] is 4.2 µM; with HUVECs, 6.8 µM; in experiment [2] it was above 250 µM; in the experiment on HRECs it was 1.6 µM.

In the case of `COC(=O)c1cc(/C=C2\COc3cc(OC)c(OC)c(OC)c3C2=O)ccc1OC` [Compound 11r], the concentration for 50% growth inhibition (GI50) in experiment [1] was 6 µM; with HUVECs, 3.2 µM; in experiment [2], above 100 µM; in the experiment on HRECs, 5.5 µM.

For the molecule `COc1cc2c(c(OC)c1OC)C(=O)/C(=C/c1ccc(OCc3ccccc3)c(OCc3ccccc3)c1)CO2` [Compound 11t], the GI50 in experiment [1] is 109 µM; in the experiment on HUVECs it was 64 µM; in experiment [2] it was above 250 µM; in the experiment on HRECs, 160 µM.

As for `COc1cc2c(c(OC)c1OC)C(=O)C(Cc1ccc(O)c(O)c1)CO2` (stereo not drawn) [Compound 6e], the GI50 in experiment [1] is 98 µM; in the experiment on HUVECs, 77 µM; in experiment [2], above 250 µM; in the experiment on HRECs, above 250 µM.

On to `COc1cc2c(c(OC)c1OC)C(=O)/C(=C/c1ccccc1[N+](=O)[O-])CO2` [Compound 11x], for which the GI50 in experiment [1] was 8 µM; with HUVECs, 9 µM; in experiment [2] it was 29 µM; in the experiment on HRECs, 8.6 µM.

In the case of `COC(=O)c1cc(CC2COc3cc(OC)c(OC)c(OC)c3C2=O)ccc1OC` (stereo not drawn) [Compound 6d], the GI50 in experiment [1] was 40 µM; in the experiment with HUVECs it was 27 µM; in experiment [2], above 250 µM; in the experiment with HRECs, 13 µM.

With `COc1ccc(/C=C2\COc3cc(OC)c(OC)c(OC)c3C2=O)c(OC)c1OC` [Compound 11w], the concentration for 50% growth inhibition (GI50) in experiment [1] was 154 µM; in the experiment with HUVECs, 45 µM; in experiment [2], above 250 µM; in the experiment on HRECs, 91 µM.

Regarding `COc1ccc(/C=C2\Cc3cc(OC)c(OC)c(OC)c3C2=O)cc1O` [Compound 13, (E)-2-(3-hydroxy-4-methoxybenzylidene)-5,6,7-trimethoxy-2,3-dihydro-1H-inden-1-one], the GI50 in experiment [1] is 49 µM; in the experiment on HUVECs, 19 µM; in experiment [2], 80 µM; with HRECs it was 30 µM.

As for `COc1ccc(/C=C2\COc3cc(OC)c(OC)c(O)c3C2=O)cc1O` [Compound 11q], the concentration for 50% growth inhibition (GI50) in experiment [1] came to 6 µM; with HUVECs, 5.4 µM; in experiment [2], 11 µM; in the experiment with HRECs, 7 µM.

For `COc1cc2c(c(OC)c1OC)C(=O)/C(=C/c1ccc(O)c(F)c1)CO2` [Compound 11p], the GI50 was determined as 22 µM in experiment [1], 9 µM in the experiment on HUVECs, 30 µM in experiment [2] and 19 µM in the experiment on HRECs.

As to `COc1cc2c(c(OC)c1OC)C(=O)CCO2` [Compound 10a, 5,6,7-trimethoxychromanone], the GI50 is above 500 µM in experiment [1], above 100 µM in the experiment on HUVECs, above 500 µM in experiment [2] and above 100 µM with HRECs.

For `COc1cc2c(c(O)c1OC)C(=O)C(Cc1ccccc1)CO2` (stereo not drawn) [Compound 8b, 3-benzyl-5-hydroxy-6,7-dimethoxychroman-4-one], the concentration for 50% growth inhibition (GI50) is above 100 µM in experiment [1], 40 µM in the experiment on HUVECs, above 100 µM in experiment [2] and above 100 µM with HRECs.

On to `COc1cc(/C=C2\COc3cc(OC)c(OC)c(OC)c3C2=O)ccc1O` [Compound 11e], for which the GI50 stood at 23 µM in experiment [1], 6 µM in the experiment with HUVECs, 55 µM in experiment [2] and 4 µM in the experiment on HRECs.

For the molecule `COc1ccc(CC2(CO)COc3cc(OC)c(OC)c(OC)c3C2=O)cc1O` (stereo not drawn) [Compound 5, 3-(3′-hydroxy-4′-methoxybenzyl)-3-(hydroxymethyl)-5,6,7-trimethoxychroman-4-one], the GI50 (in experiment [1]; in the experiment on HUVECs; in experiment [2]; with HRECs) was above 100 µM each time.

In the case of `COc1cc2c(c(OC)c1OC)C(=O)/C(=C/c1ccc(O)c(O)c1)CO2` [Compound 11n], the 50% growth inhibitory concentration (GI50) in experiment [1] came out at 13 µM; with HUVECs it was 4.1 µM; in experiment [2] it was 13.7 µM; in the experiment on HRECs, 6.4 µM.

For `COc1ccc(/C=C2\CCOc3cc(OC)c(OC)c(OC)c3C2=O)cc1O` [Compound 12, (E)-4-(3-hydroxy-4-methoxybenzylidene)-6,7,8-trimethoxy-3,4-dihydrobenzo[b]oxepin-5(2H)-one], the GI50 in experiment [1] amounted to 33 µM; in the experiment on HUVECs, 30 µM; in experiment [2], 145 µM; in the experiment with HRECs, 35 µM.

As for `COc1ccc(CC2COc3cc(OC)c(OC)c(OC)c3C2=O)cc1C(=O)O` (stereo not drawn) [Compound 6f], the GI50 is above 250 µM in experiment [1], 92 µM with HUVECs, above 250 µM in experiment [2] and 131 µM in the experiment on HRECs.

With `COc1c(O)cc2occ(Cc3ccccc3)c(=O)c2c1O` [Compound 9b, 3-benzyl-5,7-dihydroxy-6-methoxy-4H-chromen-4-one], the GI50 (in experiment [1]; in the experiment with HUVECs; in experiment [2]; in the experiment on HRECs) was above 100 µM in each case.

In the case of `COc1cc(O)c(C(=O)/C=C/c2ccccc2)c(OC)c1OC` [Compound 3b], the GI50 (in experiment [1]; in the experiment on HUVECs; in experiment [2]; with HRECs) was above 100 µM in each case.

Turning to `COc1ccc(/C=C2\COc3cc(OC)c(OC)c(OC)c3C2=O)cc1OCC(=O)OC(C)(C)C` [Compound 11l], the GI50 is 21 µM in experiment [1], 27 µM in the experiment with HUVECs, above 500 µM in experiment [2] and above 500 µM with HRECs.

For `COc1ccc(CC2COc3cc(OC)c(OC)c(OC)c3C2=O)cc1O` (stereo not drawn) [Compound 6a, 3-(3′-hydroxy-4′-methoxybenzyl)-5,6,7-trimethoxychroman-4-one], the GI50 (in experiment [1]; in the experiment with HUVECs; in experiment [2]; with HRECs) was above 100 µM each time.

Take `COc1ccc(/C=C2\COc3cc(OC)c(OC)c(OC)c3C2=O)cc1O` [Compound 11a, (E)-3-(3′-hydroxy-4′-methoxybenzylidene)-5,6,7-trimethoxychroman-4-one]: the GI50 in experiment [1] was found to be 44 µM; in the experiment on HUVECs, 8 µM; in experiment [2], 0.22 µM; in the experiment with HRECs it was 46 µM.

In the case of `COc1cccc(/C=C2\COc3cc(OC)c(OC)c(OC)c3C2=O)n1` [Compound 11f], the 50% growth inhibitory concentration (GI50) in experiment [1] worked out at 25 µM; in the experiment on HUVECs it was 16 µM; in experiment [2] it was 25 µM; in the experiment with HRECs it was 17 µM.

For `COc1ccc(/C=C2\COc3cc(OC)c(OC)c(OC)c3C2=O)cc1OCc1ccccc1` [Compound 11b, (E)-3-(3′-benzyloxy-4′-methoxybenzylidene)-5,6,7-trimethoxychroman-4-one], the results for the GI50 (in experiment [1]; in the experiment on HUVECs; in the experiment with HRECs) were 15 µM, 4 µM and 6 µM, respectively.
